“And” between values parts separate entries of the source, which are not always exact repeats. Identical values can stand only once. Toxic doses and inconclusive results are not listed. The calls were made as follows: active = survival T/C of 150% or more; inactive = T/C below 125% in these data.
Test system: P388 leukemia ip, CD2F1 mice, survival T/C
Test: NCI In Vivo Anticancer Drug Screen. Data for tumor model P388 Leukemia (intraperitoneal) in CD2F1 (CDF1) mice
Conditions: endpoint: median survival time, higher = longer survival
Outline: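 Mice carrying the transplanted tumor received test compound or vehicle. Survival was recorded in each group, and the value is the treated-group measurement divided by that of the vehicle-treated control group.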

[1] = dose: 12.5 mg/kg/injection, schedule: Q01DX009 (ip), vehicle: saline
[2] = dose: 200.0 mg/kg/injection, schedule: Q01DX005 (ip), vehicle: saline with Tween-80
[3] = dose: 100.0 mg/kg/injection, schedule: Q01DX005 (ip), vehicle: saline with Tween-80
[4] = dose: 100.0 mg/kg/injection, schedule: Q01DX001 (ip), vehicle: Klucel (hydroxypropylcellulose) (HPC)
[5] = dose: 50.0 mg/kg/injection, schedule: Q01DX005 (ip), vehicle: Klucel (hydroxypropylcellulose) (HPC)
[6] = dose: 100.0 mg/kg/injection, schedule: Q01DX005 (ip), vehicle: Klucel (hydroxypropylcellulose) (HPC)
[7] = dose: 200.0 mg/kg/injection, schedule: Q01DX005 (ip), vehicle: Klucel (hydroxypropylcellulose) (HPC)
[8] = dose: 50.0 mg/kg/injection, schedule: Q01DX009 (ip), vehicle: saline
[9] = dose: 100.0 mg/kg/injection, schedule: Q04DX002 (ip), vehicle: saline with Tween-80
[10] = dose: 200.0 mg/kg/injection, schedule: Q04DX002 (ip), vehicle: saline with Tween-80
[11] = dose: 60.0 mg/kg/injection, schedule: Q01DX005 (ip), vehicle: saline with Tween-80
[12] = dose: 120.0 mg/kg/injection, schedule: Q01DX005 (ip), vehicle: saline with Tween-80
[13] = dose: 240.0 mg/kg/injection, schedule: Q01DX005 (ip), vehicle: saline with Tween-80
[14] = dose: 50.0 mg/kg/injection, schedule: Q01DX009 (ip), vehicle: Klucel (hydroxypropylcellulose) (HPC)
[15] = dose: 100.0 mg/kg/injection, schedule: Q01DX009 (ip), vehicle: Klucel (hydroxypropylcellulose) (HPC)
[16] = dose: 200.0 mg/kg/injection, schedule: Q01DX009 (ip), vehicle: Klucel (hydroxypropylcellulose) (HPC)
[17] = dose: 100.0 mg/kg/injection, schedule: Q04DX002 (ip), vehicle: Klucel (hydroxypropylcellulose) (HPC)
[18] = dose: 200.0 mg/kg/injection, schedule: Q04DX002 (ip), vehicle: Klucel (hydroxypropylcellulose) (HPC)
[19] = dose: 400.0 mg/kg/injection, schedule: Q04DX002 (ip), vehicle: Klucel (hydroxypropylcellulose) (HPC)

Measured: T/C

CC[N+](C)(CC)CCNC(=O)Nc1ccc(-c2ccc(NC(=O)NCC[N+](C)(CC)CC)c(OC)c2)cc1OC
inactive: dose: 6.25 mg/kg/injection, schedule: Q01DX009 (ip), vehicle: saline 98 % of control | [1] 96 % of control

COc1cc2c(c(OC)c1OC)-c1ccc(=O)c(OC)cc1[C@@H](NC(=O)C(F)(F)F)CC2
inactive: dose: 2.5 mg/kg/injection, schedule: Q01DX009 (ip), vehicle: Klucel (hydroxypropylcellulose) (HPC) 105 % of control | dose: 5.0 mg/kg/injection, schedule: Q01DX009 (ip), vehicle: Klucel (hydroxypropylcellulose) (HPC) 97 % of control | dose: 10.0 mg/kg/injection, schedule: Q01DX009 (ip), vehicle: Klucel (hydroxypropylcellulose) (HPC) 96 % of control | dose: 20.0 mg/kg/injection, schedule: Q01DX009 (ip), vehicle: Klucel (hydroxypropylcellulose) (HPC) 105 % of control | dose: 40.0 mg/kg/injection, schedule: Q01DX009 (ip), vehicle: Klucel (hydroxypropylcellulose) (HPC) 102 % of control

CC1(C)OC(=O)C(CC(=O)O)O1 (stereo unspecified)
inactive: dose: 60.0 mg/kg/injection, schedule: Q01DX005 (ip), vehicle: saline 105 % of control | dose: 120.0 mg/kg/injection, schedule: Q01DX005 (ip), vehicle: saline 100 % of control | dose: 240.0 mg/kg/injection, schedule: Q01DX005 (ip), vehicle: saline 100 % of control

Cc1cccc(/C=N/Nc2nc3ccccc3s2)n1
inactive: dose: 6.25 mg/kg/injection, schedule: Q01DX005 (ip), vehicle: saline with Tween-80 90 % of control | dose: 12.5 mg/kg/injection, schedule: Q01DX005 (ip), vehicle: saline with Tween-80 89 % of control | [2] 99 % of control

CNC(=O)SCCC(=O)OC
inactive: dose: 50.0 mg/kg/injection, schedule: Q01DX005 (ip), vehicle: saline with Tween-80 98 % of control | [3] 100 % of control | [2] 100 % of control

CC1N[P+]2(Nc3ccccc3O2)OC1=O (stereo unspecified)
inactive: [4] 103 % of control | dose: 200.0 mg/kg/injection, schedule: Q01DX001 (ip), vehicle: Klucel (hydroxypropylcellulose) (HPC) 103 % of control | dose: 400.0 mg/kg/injection, schedule: Q01DX001 (ip), vehicle: Klucel (hydroxypropylcellulose) (HPC) 106 % of control

Nc1ccc(Nc2nc(Cl)nc(Nc3ccc(N)cc3)n2)cc1
inactive: [5] 98 % of control | [6] 90 % of control | [7] 90 % of control

CCCCCCCCCCCC[N+]1([O-])CCOCC1
inactive: dose: 0.75 mg/kg/injection, schedule: Q01DX009 (ip), vehicle: saline with Tween-80 93 % of control | dose: 1.5 mg/kg/injection, schedule: Q01DX009 (ip), vehicle: saline with Tween-80 91 % of control | dose: 3.0 mg/kg/injection, schedule: Q01DX009 (ip), vehicle: saline with Tween-80 93 % of control | [1] 91 % of control | dose: 25.0 mg/kg/injection, schedule: Q01DX009 (ip), vehicle: saline 101 % of control and 94 % of control | [8] 99 % of control and 97 % of control

CCOC(=O)N1CCc2cc(OC)c(O)cc2C1CC1=CC(=O)C(OC)=CC1=O (stereo unspecified)
inactive: [9] 102 % of control | [10] 100 % of control | dose: 400.0 mg/kg/injection, schedule: Q04DX002 (ip), vehicle: saline with Tween-80 97 % of control

CCCCCCCCCCCCCCCCOc1ccccc1CNc1cc(C(F)(F)F)ccc1Cl
inactive: dose: 100.0 mg/kg/injection, schedule: Q04DX003 (ip), vehicle: other 95 % of control | dose: 200.0 mg/kg/injection, schedule: Q04DX003 (ip), vehicle: other 100 % of control | dose: 400.0 mg/kg/injection, schedule: Q04DX003 (ip), vehicle: other 90 % of control

O=c1[nH]c2cc(Cl)ccc2nc1C1=C(O)c2ccccc2C1
inactive: [11] 89 % of control | [12] 89 % of control | [13] 110 % of control

CCCCCC(O)/C=C/[C@H]1C(O)CC2OC(CSCCC(=O)O)C[C@@H]21 (stereo partly specified)
inactive: [9] 103 % of control | [10] 96 % of control

Brc1cc(-c2ccccc2)no1
inactive: [14] 104 % of control | [15] 111 % of control | [16] 109 % of control

CCC(=O)/C=C/c1ccc(N(Cl)Cl)cc1
inactive: dose: 25.0 mg/kg/injection, schedule: Q01DX001 (ip), vehicle: Klucel (hydroxypropylcellulose) (HPC) 107 % of control | dose: 50.0 mg/kg/injection, schedule: Q01DX001 (ip), vehicle: Klucel (hydroxypropylcellulose) (HPC) 106 % of control | [4] 104 % of control

CSc1nc2c(=S)[nH]c(=S)[nH]c2s1
inactive: [17] 101 % of control | [18] 100 % of control | [19] 100 % of control

COC(C)C(O)(C(=O)OCC1=CC[N+]2([O-])CCC(O)C12)C(C)(C)O (stereo unspecified)
inactive: dose: 100.0 mg/kg/injection, schedule: Q01DX005 (ip), vehicle: other 111 % of control | [3] 104 % of control | dose: 200.0 mg/kg/injection, schedule: Q01DX005 (ip), vehicle: other 102 % of control | [2] 112 % of control | dose: 400.0 mg/kg/injection, schedule: Q01DX005 (ip), vehicle: saline with Tween-80 107 % of control | dose: 800.0 mg/kg/injection, schedule: Q01DX005 (ip), vehicle: other 111 % of control | dose: 800.0 mg/kg/injection, schedule: Q01DX005 (ip), vehicle: saline with Tween-80 117 % of control | dose: 1600.0 mg/kg/injection, schedule: Q01DX005 (ip), vehicle: saline with Tween-80 112 % of control

ClCCN(CCCl)CC(Cl)COc1cccc2ccccc12 (stereo unspecified)
inactive: dose: 0.62 mg/kg/injection, schedule: Q01DX009 (ip), vehicle: saline 106 % of control and 108 % of control | dose: 1.25 mg/kg/injection, schedule: Q01DX009 (ip), vehicle: saline 100 % of control and 108 % of control | dose: 2.5 mg/kg/injection, schedule: Q01DX009 (ip), vehicle: saline 86 % of control and 97 % of control

COC(=O)N1c2ccccc2[C@@H](O)[C@@H]1OC
inactive: [11] 119 % of control | [12] 116 % of control | [13] 100 % of control

OC(c1cc(-c2cccc(Cl)c2)nc2ccccc12)C1CCCCN1 (stereo unspecified)
inactive: [5] 112 % of control | [6] 107 % of control

C=C(C#N)CSc1c(Cl)c(Cl)c(Cl)c(Cl)c1Cl
inactive: dose: 25.0 mg/kg/injection, schedule: Q04DX003 (ip), vehicle: Klucel (hydroxypropylcellulose) (HPC) 88 % of control | dose: 50.0 mg/kg/injection, schedule: Q04DX003 (ip), vehicle: Klucel (hydroxypropylcellulose) (HPC) 91 % of control | dose: 100.0 mg/kg/injection, schedule: Q04DX003 (ip), vehicle: Klucel (hydroxypropylcellulose) (HPC) 93 % of control and 95 % of control | dose: 200.0 mg/kg/injection, schedule: Q04DX003 (ip), vehicle: Klucel (hydroxypropylcellulose) (HPC) 100 % of control and 103 % of control | dose: 400.0 mg/kg/injection, schedule: Q04DX003 (ip), vehicle: Klucel (hydroxypropylcellulose) (HPC) 105 % of control

CC1CCCC(OC(=O)Nc2ccccc2)C1 (stereo unspecified)
inactive: dose: 100.0 mg/kg/injection, schedule: Q04DX003 (ip), vehicle: saline with Tween-80 105 % of control | dose: 200.0 mg/kg/injection, schedule: Q04DX003 (ip), vehicle: saline with Tween-80 103 % of control | dose: 400.0 mg/kg/injection, schedule: Q04DX003 (ip), vehicle: saline with Tween-80 96 % of control

Nc1ccc2cc(S(=O)(=O)O)c(N=Nc3ccc(-c4ccc(N=Nc5ccc(O)c(C(=O)O)c5)cc4)cc3)c(O)c2c1
inactive: [5] 92 % of control | [6] 97 % of control | [7] 95 % of control

Cc1[nH]c(=O)nc(CCc2ccccc2)c1-c1ccccc1
inactive: [11] 93 % of control | [12] 87 % of control

COc1ccc(C2=C(Cl)C(=O)N(c3ccc(O)cc3)C(=O)C2(Cl)Cl)cc1
inactive: [17] 106 % of control | [18] 107 % of control | [19] 116 % of control

Cc1csc(N=Nc2ccc(N(C)C)cc2)[n+]1[O-]
inactive: [14] 103 % of control | [15] 109 % of control | [16] 108 % of control

O=C1OCC(Cc2ccc3c(c2)OCO3)C1Cc1ccc2c(c1)OCO2 (stereo unspecified)
inactive: [8] 109 % of control | dose: 100.0 mg/kg/injection, schedule: Q01DX009 (ip), vehicle: saline 93 % of control | dose: 200.0 mg/kg/injection, schedule: Q01DX009 (ip), vehicle: saline 99 % of control

From PubChem BioAssay AID330 (DTP/NCI, 2004)
